Results published in patent publication US20080234306A1, “N-Oxides of 4,5-Epoxy-Morphinanium Analogs” (Progenics Pharmaceuticals, Inc., priority 2006, published 2008).

Columns and labels:
μ-opioid receptor [1] = target: T1, μ-opioid receptor (Cavia porcellus, UniProt A0ACM8Q262); test: Evaluation of antagonist activity at the μ-opioid receptor, guinea pig ileum test (tissue model, responses to DAMGO); details: for IC50: tissue model for antagonist activity
Description: (§1) Evaluation for Agonist and Antagonist Activities at the […] Receptors in the Guinea Pig Ileum
(§2) Agonist/antagonist activity at the μ-opioid receptor was determined using the well known guinea pig ileum test. Briefly, an a section of ileum was placed in a stabilized solution in a tensed state. Transducers were used to measure changes in tension upon electrical stimulation to the tissue before and after challenge with a potential agonist/antagonist Using a control, constriction inhibition, and constriction inhibition cancellation, may be measured.

μ-opioid receptor [2] = system: T2, μ-opioid receptor; test: Evaluation of agonist activity at the μ-opioid receptor, guinea pig ileum test
T2 construct: Responses to increasing concentrations of the compounds (% control response to DAMGO); other: compound 1.0E^−04 M; Responses to increasing concentrations of the compounds (% control response to DAMGO); other: compound 1.0E^−08 M; other: compound 3.0E^−08 M; Responses to increasing concentrations of the com
Description: as §1, §2

human μ-receptor = human μ-receptor (Homo sapiens, UniProt P35372); test: human μ-receptor model (binding, Ki); details: read-out: % Inhibition at 1 × 10^−5 M
μ-opioid receptor [3] = target: T1, μ-opioid receptor; test: Evaluation of agonist activity at the μ-opioid receptor, guinea pig ileum test
Description: as §1, §2

[4] = guinea pig, read-out: Responses to DAMGO (1.0E−07 M) in the presence of increasing concentrations of the compounds (% control response)

human μ-receptor, sequence (P35372 whole entry): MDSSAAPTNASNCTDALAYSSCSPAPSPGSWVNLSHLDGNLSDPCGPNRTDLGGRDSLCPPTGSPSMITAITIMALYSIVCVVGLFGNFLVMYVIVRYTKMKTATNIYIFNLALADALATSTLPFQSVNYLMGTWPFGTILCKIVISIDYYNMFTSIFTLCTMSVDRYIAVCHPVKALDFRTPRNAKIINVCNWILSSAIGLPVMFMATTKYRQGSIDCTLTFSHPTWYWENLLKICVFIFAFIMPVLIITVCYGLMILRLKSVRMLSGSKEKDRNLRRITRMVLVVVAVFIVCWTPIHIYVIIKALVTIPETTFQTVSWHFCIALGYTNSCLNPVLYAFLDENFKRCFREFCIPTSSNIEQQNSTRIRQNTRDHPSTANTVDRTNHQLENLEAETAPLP
T1 sequence (A0ACM8Q262 1-400): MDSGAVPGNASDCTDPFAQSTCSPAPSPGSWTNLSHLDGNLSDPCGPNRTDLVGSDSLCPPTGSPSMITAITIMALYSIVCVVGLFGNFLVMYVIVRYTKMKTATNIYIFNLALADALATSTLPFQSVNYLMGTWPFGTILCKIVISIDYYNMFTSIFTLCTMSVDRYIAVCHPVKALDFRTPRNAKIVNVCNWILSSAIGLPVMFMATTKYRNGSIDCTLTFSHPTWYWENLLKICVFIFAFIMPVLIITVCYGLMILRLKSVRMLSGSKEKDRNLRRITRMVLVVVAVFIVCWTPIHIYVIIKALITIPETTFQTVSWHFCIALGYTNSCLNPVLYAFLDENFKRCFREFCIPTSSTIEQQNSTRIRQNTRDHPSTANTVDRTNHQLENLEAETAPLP

Question: Which melting point does the source give for `[O-][N+]1(CC2CC2)CC[C@]23c4c5ccc(O)c4O[C@H]2[C@@H](O)CC[C@@]3(OCCCc2ccccc2)[C@H]1C5` (stereo partly drawn) here?
Answer: 155 to 159 °C

Question: With `O=C1CC[C@H]2[C@H]3Cc4ccc(O)c5c4[C@@]2(CC[N+]3([O-])CC2CC2)[C@H]1O5` (stereo partly drawn) as the compound, how does the melting point read?
Answer: 209 to 211 °C

Question: Which melting point does the source give for `C=C1CC[C@@]2(OCCCc3ccccc3)[C@H]3Cc4ccc(O)c5c4[C@@]2(CC[N+]3([O-])CC2CC2)[C@H]1O5.O=C(O)C(F)(F)F` (stereo partly drawn) here?
Answer: 182 °C (dec.)

Question: Which results are given for `O=C1CC[C@@]2(O)[C@H]3Cc4ccc(O)c5c4[C@@]2(CC[N+]3([O-])CC2CC2)[C@H]1O5` (stereo partly drawn) [Compound C0001, (S)-17-Cyclopropylmethyl-4,5α-epoxy-3,14-hydroxy-morphinan-6-one N-oxide]?
Answer: remaining activity at 0.01 µM (μ-opioid receptor [1]; [4]): 100%; remaining activity at 0.03 µM (μ-opioid receptor [1]; [4]): 91%; remaining activity at 0.1 µM (μ-opioid receptor [1]; [4]): 80%; remaining activity at 0.3 µM (μ-opioid receptor [1]; [4]): 62%; remaining activity at 1 µM (μ-opioid receptor [1]; [4]): 36%; remaining activity at 3 µM (μ-opioid receptor [1]; [4]): 23%; remaining activity at 10 µM (μ-opioid receptor [1]; [4]): 16%; remaining activity at 30 µM (μ-opioid receptor [1]; [4]): 16%; remaining activity at 100 µM (μ-opioid receptor [1]; [4]): 16%; IC50 (μ-opioid receptor [1]): 560 nM; Responses to increasing concentrations of the compounds (% control response to DAMGO) (μ-opioid receptor [2]; compound 1.0E^−04 M): 0%; Responses to increasing concentrations of the compounds (% control response to DAMGO) (μ-opioid receptor [2]; compound 1.0E^−05 M): 0%; Responses to increasing concentrations of the compounds (% control response to DAMGO) (μ-opioid receptor [2]; compound 1.0E^−06 M): 0%; Responses to increasing concentrations of the compounds (% control response to DAMGO) (μ-opioid receptor [2]; compound 1.0E^−07 M): 0%; Responses to increasing concentrations of the compounds (% control response to DAMGO) (μ-opioid receptor [2]; compound 1.0E^−08 M): 0%; Responses to increasing concentrations of the compounds (% control response to DAMGO) (μ-opioid receptor [2]; compound 3.0E^−05 M): 0%; Responses to increasing concentrations of the compounds (% control response to DAMGO) (μ-opioid receptor [2]; compound 3.0E^−06 M): 0%; Responses to increasing concentrations of the compounds (% control response to DAMGO) (μ-opioid receptor [2]; compound 3.0E^−07 M): 0%; Responses to increasing concentrations of the compounds (% control response to DAMGO) (μ-opioid receptor [2]; compound 3.0E^−08 M): 0%; agonistic activity (μ-opioid receptor [2]; concentration of 1.0×10^−4 M, versus DAMGO): No agonistic activity; inhibition at 10 µM (human μ-receptor): 96%

Question: Which IC50 (μ-opioid receptor [1]) does the source give for `C=C1CC[C@@]2(O)[C@H]3Cc4ccc(O)c5c4[C@@]2(CC[N+]3([O-])CC2CC2)[C@H]1O5` (stereo partly drawn) [Compound C0002] here?
Answer: > 100000 nM

Question: And the inhibition at 10 µM (human μ-receptor)?
Answer: 94%

Question: Which inhibition at 10 µM (human μ-receptor) does the source give for `Oc1ccc2c3c1O[C@H]1[C@@H](O)CC[C@@]4(O)[C@@H](C2)[N+](O)(CC2CC2)CC[C@]314` (stereo partly drawn) [Compound C0003, (S)-17-Cyclopropylmethyl-4,5α-epoxy-morphinan-3,6α,14-triol N-oxide] here?
Answer: 100%

Question: For `[O-][N+]1(CC2CC2)CC[C@]23c4c5ccc(O)c4O[C@H]2[C@@H](Cn2ccnc2)CC[C@@]3(O)[C@H]1C5` (stereo partly drawn) [Compound C0018, 17-Cyclopropylmethyl-4,5α-epoxy-3,14-dihydroxy-6α-(1H-imidazol-1-yl)methyl morphinan N-oxide], which inhibition at 10 µM (human μ-receptor) is on record?
Answer: 89%

Question: For `[O-][N+]1(CC2CC2)CC[C@]23c4c5ccc(O)c4O[C@H]2[C@@H](CO)CC[C@@]3(O)[C@H]1C5` (stereo partly drawn) [Compound C0021, 17-cyclopropylmethyl-4,5α-epoxy-3,14-dihydroxy-6α-hydroxymethyl morphinan N-oxide], which inhibition at 10 µM (human μ-receptor) is on record?
Answer: 95%

Question: With `[O-][N+]1(CC2CC2)CC[C@]23c4c5ccc(O)c4O[C@H]2CCC[C@@]3(O)[C@H]1C5` (stereo partly drawn) [Compound C0023, 17-Cyclopropylmethyl-4,5α-epoxy-3,14-dihydroxymorphinan-N-oxide] as the compound, how does the inhibition at 10 µM (human μ-receptor) read?
Answer: 101%

Question: For `CC1C[C@@]2(O)[C@H]3Cc4ccc(O)c5c4[C@@]2(CC[N+]3([O-])CC2CC2)[C@@H](O5)C1=O` (stereo partly drawn) [Compound C0030, (S)-17-Cyclopropylmethyl-4,5α-epoxy-3,14-dihydroxy-7-methyl-morphinan-6-one N-oxide], which inhibition at 10 µM (human μ-receptor) is on record?
Answer: 67%

Question: Which “Response + Naloxone (1.0E^−07 M)” value (μ-opioid receptor [3]; after highest compound concentration, + naloxone 1.0E^−07 M) does the source give for `C[C@@H](NC(=O)[C@@H](N)Cc1ccc(O)cc1)C(=O)NCC(=O)N(C)[C@@H](Cc1ccccc1)C(=O)NCCO` [DAMGO, D-Ala^2,N-Me-Phe^4,Gly^5-ol-enkephalin, reference compound] here?
Answer: 4%

Question: What about the activation at 1 µM (μ-opioid receptor [3]; compound 1.0E^−06 M, read-out: Responses to increasing concentrations of the compounds (% control response to DAMGO)) of the same compound?
Answer: 103%

Question: What about the activation at 0.1 µM (μ-opioid receptor [3]; compound 1.0E^−07 M, read-out: Responses to increasing concentrations of the compounds (% control response to DAMGO)) of the same compound?
Answer: 96%

Question: What about the activation at 0.01 µM (μ-opioid receptor [3]; compound 1.0E^−08 M, read-out: Responses to increasing concentrations of the compounds (% control response to DAMGO)) of the same compound?
Answer: 57%

Question: What about the activation at 0.001 µM (μ-opioid receptor [3]; compound 1.0E−09 M, read-out: Responses to increasing concentrations of the compounds (% control response to DAMGO)) of the same compound?
Answer: 9%
